{"source": "ChEMBL document CHEMBL4130439", "about": "“Oral Ingestion and Intraventricular Injection of Curcumin Attenuates the Effort-Related Effects of the VMAT-2 Inhibitor Tetrabenazine: Implications for Motivational Symptoms of Depression” (2017)", "key": {"Rattus norvegicus [1]": {"system": "Rattus norvegicus", "experiment": "Ratio of compound effect for TBZ-induced lever presses in icv administered Harlan Sprague Dawley rat to compound effect for TBZ-induced lever presses in orally administered Harlan Sprague Dawley rat", "format": "functional"}, "Rattus norvegicus [2]": {"system": "Rattus norvegicus", "experiment": "Inhibition of effort-related effects of TBZ in 90 mins TBZ pretreated Harlan Sprague Dawley rat assessed as increase in TBZ-induced lever presses at 4 to 8 microg, icv administered via chronic indwelling cannulae 20 mins prior to testing measured for 30 mins", "format": "functional, organism-based"}, "Rattus norvegicus [3]": {"system": "Rattus norvegicus", "experiment": "Inhibition of effort-related effects of TBZ in Harlan Sprague Dawley rat assessed as increase in TBZ-induced lever presses at 80 to 160 mg/kg, po administered 2 hrs prior to testing followed by TBZ addition at 90 mins prior to testing measured for 30 mins", "format": "functional, organism-based"}, "Rattus norvegicus [4]": {"system": "Rattus norvegicus", "experiment": "Inhibition of effort-related effects of TBZ in 90 mins TBZ pretreated Harlan Sprague Dawley rat assessed as decrease in TBZ-induced chow intake at 4 to 8 microg, icv administered via chronic indwelling cannulae 20 mins prior to testing measured for 30 mins", "format": "functional, organism-based"}, "Rattus norvegicus [5]": {"system": "Rattus norvegicus", "experiment": "Inhibition of effort-related effects of TBZ in Harlan Sprague Dawley rat assessed as decrease in TBZ-induced chow intake at 80 to 160 mg/kg, po administered 2 hrs prior to testing followed by TBZ addition at 90 mins prior to testing measured for 30 mins", "format": "functional, organism-based"}, "Rattus norvegicus [6]": {"system": "Rattus norvegicus", "experiment": "Inhibition of effort-related effects of TBZ in Harlan Sprague Dawley rat assessed as decrease in TBZ-induced chow intake at 160 mg/kg, po administered 3 hrs prior to testing followed by coadministration with TBZ at 90 mins prior to testing measured for 30 mins", "format": "functional, organism-based"}, "Rattus norvegicus [7]": {"system": "Rattus norvegicus", "experiment": "Inhibition of effort-related effects of TBZ in Harlan Sprague Dawley rat assessed as increase in TBZ-induced lever presses at 160 mg/kg, po administered 3 hrs prior to testing followed by coadministration with TBZ at 90 mins prior to testing measured for 30 mins", "format": "functional, organism-based"}, "Rattus norvegicus [8]": {"system": "Rattus norvegicus", "experiment": "Ratio of compound effect for TBZ-induced chow intake in icv administered Harlan Sprague Dawley rat to compound effect for TBZ-induced chow intake in orally administered Harlan Sprague Dawley rat", "format": "functional"}}, "note": "The source made the active and inactive calls. The calls are words filed in the database; no cut-off is given here.", "data": [{"compound": "COc1cc(/C=C/C(=O)CC(=O)/C=C/c2ccc(O)c(OC)c2)ccc1O", "note": "[CURCUMIN]", "values": [{"measurement": "Ratio", "setting": "Rattus norvegicus [1]", "result": ">1000"}, {"measurement": "inhibition", "setting": "Rattus norvegicus [2]", "result": "Active"}, {"measurement": "inhibition", "setting": "Rattus norvegicus [3]", "result": "inactive"}, {"measurement": "inhibition", "setting": "Rattus norvegicus [4]", "result": "Active"}, {"measurement": "inhibition", "setting": "Rattus norvegicus [5]", "result": "inactive"}, {"measurement": "inhibition", "setting": "Rattus norvegicus [6]", "result": "Active"}, {"measurement": "inhibition", "setting": "Rattus norvegicus [7]", "result": "Active"}, {"measurement": "Ratio", "setting": "Rattus norvegicus [8]", "result": ">1000"}]}]}
